This note sets out measurements from article PMC12914960, “Repurposing a detrimental antibody epitope as targeted therapeutics for sepsis and rheumatoid arthritis” (Military Medical Research, 2026).

Values joined by “and” are separate entries in the source; they are usually repeats but may differ in a detail not shown here. Equal entries are not always repeated. Where a SMILES comes first, the peptide text is derived from it.

The test system of experiment [1] is Differentiated human macrophages. The experiment in a line: HMGB1-induced macrophage death, trypan blue uptake. Format: cell-based. The settings on record: 16 h; for Trypan blue uptake: individual replicates. As for the experimental part:
Human macrophage differentiation and treatment
Human PBMCs were differentiated into macrophages by culturing in human macrophage colony-stimulating factor (M-CSF, 20 ng/ml) for 5 – 6 d. Differentiated macrophages were maintained in Dulbecco’s modified Eagle’s medium supplemented with 1% penicillin/streptomycin and 10% human serum. Upon reaching 70 – 80% conflu ence, adh erent cells were wash ed and switched to Opti-MEM I before stimulation with recombinant HMGB1 (0.5 µg/ml) with or without P2- 1 (5.0 or 10 µg/ml) for 16 […]
Cell viability was assessed via the tryp an blue excl usion and lactat e dehyd ro genase (LDH) release method as previously described . For trypan blue exclusion, random phase-contr ast images were captur ed , and the percentage of nonviable, trypan blue-stained cells was calculated. LDH release in the culture medium was quantified with an LDH Ass ay Kit (Cat. #L7572, Pointe Scientific Inc., Canton, MI, USA) according to the manufacturer ’s instructions. Optical density was measured at 340 nm, and LDH content was expressed as a per centag e of maximal release in the presence of 2% Triton X-100. The experiments were performed 5 – 7 times ( n= 5 –7 biological replicates). […]

The test system of experiment [2] is pCTS-L secretion from human PBMCs. Kind of experiment: HMGB1-induced pCTS-L secretion by PBMCs, Western blotting. The settings on record: 16 h; for pCTS-L release: densitometry. Format: cell-based. On the procedure: Human blood was purchased from the New York Blood Center (Long Island City, NY, USA), and PBMCs were isolated via density gradient centrifugation through Ficoll (Ficoll-Paque PLUS) as previously described. PBMCs were cultured in RPMI-1640 supplemented with 10% human serum, 2 mmol/L L-glutamine, 100 U/ml penicillin, and 100 µg/ml streptomycin (all from Invitrogen, Carlsbad, CA, USA). For experiments, PBMCs were stimulated with recombinant HMGB1 (0.5 or 2.0 µg/ml) for 16 h, either alone or in combination with P2-1 at 5.0 or 10.0 µg/ml. Cell-free supernatants were collected for analysis of cytokine/chemokine levels via cytokine antibody arrays, or pCTS-L levels via Western blotting analysis as previously described.
Cell-conditioned medium from human PBMC cultures was collected and concentrated via Amicon Ultra Centrifugal Filters with a 10 kD molecular weight cutoff (Cat. #UFC801096, MilliporeSigma, Burlington, MA, USA). Equal volumes of conditioned medium, representing equivalent numbers of cells, were resolved on sodium dodecyl sulfate-polyacrylamide gels and transferred to polyvinylidene difluoride membranes. After being blocked with 5% nonfat milk in Tris-buffered saline with 0.1% Tween 20, the membranes were probed with a homemade primary monoclonal antibody against pCTS-L (e.g., mAb2, 1:1000) overnight as previously described. After washing, the membranes were incubated with a horseradish peroxidase-conjugated secondary antibody. The protein bands were visualized using enhanced chemiluminescence substrate (Pierce) and detected via a chemiluminescence imaging system (e.g., Bio-Rad ChemiDoc MP). The relative levels of specific proteins were determined using the UN-SCAN-IT gel analysis software version 7.1 (Silk Scientific Inc., Orem, UT, USA) and expressed in arbitrary units (AU). The experiments were performed in quadruplicate (n = 4 biological replicates).
Fig. S9 Full Western blotting analysis of the effect of P2- 1 on HMGB1- induced pCTS-L release in human PBMCs. Human PBMCs were stimulated with HMGB1 (0.5 µ g/ml) in th e abs ence or p resen ce of P2-1 (5.0 or 10.0 µg/ml) for 16 h, and the levels of pCTS-L in the cell-conditioned medium were determined by Western blotting, with sample loading normalized by volume of culture medium conditioned by an equivalent number of cells. Representative Western blotting images showing the dose-dependent […]
human PBMCs. HMGB1 high mobility group box 1, pCTS -L procathepisn L , PBMCs PBMCs peripheral […]
(1 picture or pasted object on this page, not shown here)
A general note: In western blotting, separated proteins are transferred to a membrane and probed.

`CCCC[C@H](NC(=O)[C@H](Cc1c[nH]cn1)NC(=O)[C@@H](NC(=O)[C@H](CCCCN)NC(=O)[C@@H](N)[C@@H](C)O)C(C)C)C(=O)N[C@@H](CCCCN)C(=O)N[C@@H](CO)C(=O)N[C@@H](Cc1ccccc1)C(=O)N[C@@H](CC(C)C)C(=O)N[C@@H](C)C(=O)N[C@@H](Cc1ccccc1)C(=O)N[C@@H](CCC(N)=O)C(=O)N[C@H](C(=O)N[C@@H](CCCCN)C(=O)N[C@H](C(=O)O)[C@@H](C)O)[C@@H](C)O` [P2-1] (HELM PEPTIDE1{T.K.V.H.[Nle].K.S.F.L.A.F.Q.T.K.T}$$$$V2.0; N-terminus and C-terminus assumed): the Trypan blue uptake in experiment [1] (HMGB1 0.5 µg/ml + P2-1 5.0 μg/ml) was 4.1% and 2.7% and 4.8% and 2.3% and 0.9% and 2.4%; in experiment [1] (HMGB1 0.5 µg/ml + P2-1 10.0 μg/ml), 2.9% and 0.8% and 3.8% and 1.1% and 4.2% and 3.6% and 2.4%. Further, in experiment [1] (trypan blue uptake and LDH release, HMGB1 0.5 µg/ml, P2-1 5.0 or 10 µg/ml), the “HMGB1-induced macrophage death, in words” value is given as “significantly inhibited HMGB1-induced macrophage death”. Also, the pCTS-L release was 1.2 and 4 and 3.2 and 2.1 in experiment [2] (HMGB1 (0.5) + P2-1 5.0 μg/ml, individual replicates); 0.4 and 0.7 and 1.9 and 1.1 in experiment [2] (HMGB1 (0.5) + P2-1 10.0 μg/ml, individual replicates); 4.8 in experiment [2] (HMGB1 (2.0) + P2-1 5.0 μg/ml, single value); 1.6 in experiment [2] (HMGB1 (2.0) + P2-1 10.0 μg/ml, single value). In experiment [2] (P2-1 5.0 or 10.0 µg/ml), the “HMGB1-induced pCTS-L secretion, in words” value is “striking and dose-dependent suppression of HMGB1-induced pCTS-L secretion”.
